Source: the CheMixHub viscosity set
Several values for one entry are separate records, joined by “and”; a condition that tells them apart may be missing. Equal values may be shown once. ± gives the uncertainty stated by the source.

Assay: xn = mol fraction of the nth substance listed

[Br-].[Li+] + O
viscosity
Conditions	293.15 K	298.15 K	303.15 K	308.15 K	313.15 K	318.15 K	323.15 K
100 kPa, x1 = 0.018	–	1.019 ± 0.1 mPa·s	0.916 ± 0.092 mPa·s	0.832 ± 0.083 mPa·s	0.764 ± 0.077 mPa·s	0.705 ± 0.071 mPa·s	0.656 ± 0.066 mPa·s
100 kPa, x1 = 0.035	–	1.161 ± 0.12 mPa·s	1.052 ± 0.11 mPa·s	0.966 ± 0.097 mPa·s	0.888 ± 0.089 mPa·s	0.822 ± 0.082 mPa·s	0.763 ± 0.076 mPa·s
100 kPa, x1 = 0.058	–	1.307 ± 0.13 mPa·s	1.185 ± 0.12 mPa·s	1.084 ± 0.11 mPa·s	0.998 ± 0.1 mPa·s	0.922 ± 0.092 mPa·s	0.857 ± 0.086 mPa·s
100 kPa, x1 = 0.092	–	1.601 ± 0.16 mPa·s	1.452 ± 0.15 mPa·s	1.327 ± 0.13 mPa·s	1.219 ± 0.12 mPa·s	1.126 ± 0.11 mPa·s	1.045 ± 0.11 mPa·s
100 kPa, x1 = 0.129	–	2.164 ± 0.22 mPa·s	1.972 ± 0.2 mPa·s	1.806 ± 0.18 mPa·s	1.662 ± 0.17 mPa·s	1.536 ± 0.15 mPa·s	1.427 ± 0.14 mPa·s
100 kPa, x1 = 0.17	–	3.258 ± 0.33 mPa·s	2.945 ± 0.3 mPa·s	2.683 ± 0.27 mPa·s	2.459 ± 0.25 mPa·s	2.263 ± 0.23 mPa·s	2.093 ± 0.21 mPa·s
100 kPa, x1 = 0.206	–	5.202 ± 0.52 mPa·s	4.669 ± 0.47 mPa·s	4.221 ± 0.42 mPa·s	3.841 ± 0.38 mPa·s	3.512 ± 0.35 mPa·s	3.225 ± 0.32 mPa·s
100 kPa, x1 = 0.246	–	9.066 ± 0.91 mPa·s	8.028 ± 0.81 mPa·s	7.154 ± 0.72 mPa·s	6.41 ± 0.64 mPa·s	5.769 ± 0.58 mPa·s	5.198 ± 0.52 mPa·s
101 kPa, x1 = 0.0109	1.079 ± 0.028 mPa·s	–	0.855 ± 0.022 mPa·s	–	–	–	0.593 ± 0.015 mPa·s
101 kPa, x1 = 0.0353	1.245 ± 0.033 mPa·s	–	0.999 ± 0.026 mPa·s	–	–	–	0.694 ± 0.018 mPa·s
101 kPa, x1 = 0.0649	1.472 ± 0.039 mPa·s	–	1.195 ± 0.031 mPa·s	–	–	–	0.842 ± 0.022 mPa·s
101 kPa, x1 = 0.1	1.8 ± 0.09 mPa·s	1.6 ± 0.08 mPa·s	1.44 ± 0.07 mPa·s	–	1.18 ± 0.06 mPa·s	–	–
101 kPa, x1 = 0.101	1.854 ± 0.048 mPa·s	–	1.523 ± 0.039 mPa·s	–	–	–	1.093 ± 0.028 mPa·s
101 kPa, x1 = 0.12	2.11 ± 0.1 mPa·s	1.86 ± 0.09 mPa·s	1.66 ± 0.08 mPa·s	–	1.38 ± 0.07 mPa·s	–	–
101 kPa, x1 = 0.131	2.377 ± 0.062 mPa·s	–	1.947 ± 0.05 mPa·s	–	–	–	1.408 ± 0.036 mPa·s
101 kPa, x1 = 0.14	2.35 ± 0.11 mPa·s	2.08 ± 0.1 mPa·s	1.89 ± 0.09 mPa·s	–	1.57 ± 0.08 mPa·s	–	–
101 kPa, x1 = 0.15	2.6 ± 0.1 mPa·s	2.34 ± 0.11 mPa·s	2.09 ± 0.1 mPa·s	–	1.72 ± 0.08 mPa·s	–	–
101 kPa, x1 = 0.16	3.12 ± 0.15 mPa·s	2.79 ± 0.13 mPa·s	2.48 ± 0.12 mPa·s	–	–	–	–
101 kPa, x1 = 0.1711	3.648 ± 0.095 mPa·s	–	2.957 ± 0.076 mPa·s	–	–	–	2.093 ± 0.054 mPa·s
101 kPa, x1 = 0.19	4.21 ± 0.2 mPa·s	3.73 ± 0.18 mPa·s	3.34 ± 0.16 mPa·s	–	–	–	–
101 kPa, x1 = 0.2	3.54 ± 0.17 mPa·s and 5.05 ± 0.24 mPa·s	3.1 ± 0.2 mPa·s and 4.45 ± 0.21 mPa·s	2.77 ± 0.13 mPa·s and 3.95 ± 0.19 mPa·s	–	–	–	–
101 kPa, x1 = 0.22	–	5.61 ± 0.27 mPa·s	5 ± 0.24 mPa·s	–	–	–	–
101 kPa, x1 = 0.24	–	7.22 ± 0.35 mPa·s	6.36 ± 0.3 mPa·s	–	–	–	–
101 kPa, x1 = 0.25	–	9.43 ± 0.45 mPa·s	8.1 ± 0.4 mPa·s	–	–	–	–
